From US4467086A, “Cephalosporin antibiotic” (Glaxo Group Limited, priority 1979, dated 1984)
Counter-ions that a name gives are not always drawn.

Legend:
[1] = storage stability of the solid; assay type: physicochemical
[2] = test system: gram-negative organisms, including many β-lactamase-producing gram-negative strains; settings: as described in UK Patent Specification No. 2025398, cited from earlier work
[3] = test system: gram-negative bacteria; assay: experimental infections in mice with gram-negative bacteria; assay type: in vivo
[4] = test system: Pseudomonas aeruginosa; assay: experimental infections in mice with Pseudomonas aeruginosa; assay type: in vivo
[5] = test system: Providence; assay: antibacterial activity, Providence; assay type: cell-based; settings: organisms normally difficult to combat with β-lactam antibiotics
[6] = early clinical results; assay type: in vivo, human
[7] = test system: bacteria; assay: antibacterial properties: human serum effect, inoculum effect, bactericidal action; assay type: cell-based
[8] = test system: Pseudomonas organisms; assay: antibacterial activity, Pseudomonas; assay type: cell-based; settings: organisms normally difficult to combat with β-lactam antibiotics
[9] = pharmacokinetics in human volunteers; assay type: in vivo
[10] = test system: indolepositive Proteus; assay: antibacterial activity, indole-positive Proteus; assay type: cell-based; settings: organisms normally difficult to combat with β-lactam antibiotics
[11] = in vivo
[12] = test system: Serratia; assay: antibacterial activity, Serratia; assay type: cell-based; settings: organisms normally difficult to combat with β-lactam antibiotics

SMILES | stability ([1]; crystalline form, stored for an extended period at a temperature of 50° C.) | antibiotic activity spectrum [2] | activity against gram-negative organisms ([2]; including many β-lactamase-producing gram-negative strains) | treatment of experimental infections [3] | stability ([1]; amorphous solid, especially at elevated temperatures) | protection against Pseudomonas aeruginosa infection [4] | protection compared with aminoglycoside treatment ([4]; versus an aminoglycoside such as amikacin) | activity against Providence [5] | clinical antibiotic properties [6] | effect of human serum on antibacterial properties [7] | activity against Pseudomonas [8] | serum levels after injection [9] | activity against indole-positive Proteus [10] | distribution in the body [11] | activity against Serratia [12]
CC(C)(O/N=C(\C(=O)N[C@@H]1C(=O)N2C(C(=O)[O-])=C(C[n+]3ccccc3)CS[C@H]12)c1csc(N)n1)C(=O)O [(6R,7R)-7-[(Z)-2-(2-aminothiazol-4-yl)-2-(2-carboxyprop-2-oxyimino)acetamido]-3-(1-pyridiniummethyl)ceph-3-em-4-carboxylate bishydrochloride] | remarkably stable | – | – | – | – | – | – | – | – | – | – | – | – | – | –
CC(C)(O/N=C(\C(=O)N[C@@H]1C(=O)N2C(C(=O)[O-])=C(C[n+]3ccccc3)CS[C@H]12)c1csc(N)n1)C(=O)O [ceftazidime, (6R,7R)-7-[(Z)-2-(2-aminothiazol-4-yl)-2-(2-carboxyprop-2-oxyimino)acetamido]-3-(1-pyridiniummethyl)ceph-3-em-4-carboxylate] | – | broad spectrum antibiotic activity | unusually high activity | successfully treated | not particularly satisfactory | excellent protection | comparable | excellent activity | reproduces in the clinic the excellent antibiotic properties | not impaired | excellent activity | high and long lasting | excellent activity | well distributed | excellent activity
